# Values joined by “and” are separate entries in the source; they are usually repeats but may differ in a detail not shown here. Equal entries are not always repeated.
# Columns and labels:
# BD-9 rats (normatensive) = assay: Antihypertensive test: mean arterial pressure in normotensive BD-9 rats; assay type: in vivo, rat; design: mean arterial BP (individual rats): unit not given here; details: 1mg/kg intravenous; for mean arterial BP (individual rats): rats 1-6, 1 mg/kg; for mean arterial BP, Av. / Average % change in mean arterial BP: standard error of the mean in brackets; for Average % change in mean arterial BP: versus pre-dose control
# Experimental: (§1) The effect of Compound 3 on the mean arterial pressure was determined on spontaneously hypertensive rats (SHR ) by means of direct pressure transducing. Groups of 6 male rats of mass 210-300g were used. The average of ten pressure determinations was used. Normotensive (BD-9) rats were used as animal controls, while normal saline solution (containing some traces of polyethylene glycol and ethanol to aid in the solution of the test compounds) was used as solvent and as solvent control.
# (§2) After verifying the mass of the animal, it was placed under general anaesthesia by administering 60mgikg pentobarbitone (Sagatal@) intraperitonially. The tracheal tube and carotid artery were both exposed by dissection. An intranule was introduced into the trachea as aid ventilation. The carolid artery was canalated and coupled to a pressure sensor. The sysolic, diastolic and mean arterial pressure were monitored via a Spacelab 514 patient monitor and registered on a Vitatek 551 plotter. During the experiment the exposed tissue of the rat was covered with guaze and kept damp with normal saline.
# (§3) The drugs and solvent controls were administered intravenously into the dorsal penile vein after stabilization of the blood pressure (BP) had occurred. After drug administration, the BP was recorded every 5 minutes for a period of 30 min.
# [1] = tested on: isolated rabbit ear preparation; assay: Rabbit ear perfusion test (adrenaline-induced tone, perfusion pressure); details: Oryctolagus cuniculus, Table 6, read-out: Corrected mean % change in perfusion pressurre
# Experimental: Female New Zealand White rabbits (approximately 4kg) were anaesthetised with Sagatal ® (0.5ml/kg).
# The central ear artery was cannulated using a 20 G catheter and the ear cut off at its base. Heparinised (5ml, 200 IU;ml) Krebs bicarbonate solution was perfused through the ear to expel the blood. The ear was placed in a warming jacket at 37°C and attached via the arterial catheter to the perfusion pump. Perfusion of the ear with aerated (95% 025% C02)Krebs bicarbonate solution at 37° C was commenced at a rate of 6.5ml/min using a Watson Marlow peristaltic pump. The perfusion pressure was monitored continuously using a pressure transducer (Type 4-327-1221, Consoliated Electrodynamics) coupled to a Devices Recorder.
# Following an equilibration period of 15 minutes, increased tone was induced in the preparation by addition of adrenaline (1µg/ml) to the perfusion fluid.
# After a stable tone was observed, various concentrations of test compounds were injected into the perfusion fluid and examined for their effect on the perfusion pressure. The effect of vehicle (0.2ml, 50% Krebs 50% ethanol) was also tested on the ear preparation.
# [2] = tested on: spontaneously hypertensive rats (SHR ); assay: Antihypertensive test: mean arterial pressure in spontaneously hypertensive rats; assay type: in vivo, rat; design: mean arterial BP (individual rats): unit not given here; details: SHR, 1mg/kg intravenous; for mean arterial BP (individual rats): rats 1-6, 1 mg/kg; for mean arterial BP, Av. / Average % change in mean arterial BP: standard error of the mean in brackets; for Average % change in mean arterial BP: versus pre-dose control
# Experimental: as §1, §2, §3
smiles,measurement,setting,value
COC(=O)C1=C(C)NC(C)=C(C(=O)OC)C1c1ccccc1[N+](=O)[O-] [Nifedipine],mean arterial BP (individual rats),BD-9 rats (normatensive); 5 min,67 and 59 (2×) and 80 and 74 and 60
same,"mean arterial BP, Av.",BD-9 rats (normatensive); 5 min,67(4)
same,Average % change in mean arterial BP,BD-9 rats (normatensive); 5 min,38(5.5) %
same,mean arterial BP (individual rats),BD-9 rats (normatensive); 10 min,65 and 67 (2×) and 74 and 69 and 66
same,"mean arterial BP, Av.",BD-9 rats (normatensive); 10 min,68(1)
same,Average % change in mean arterial BP,BD-9 rats (normatensive); 10 min,37(4.4) %
same,mean arterial BP (individual rats),BD-9 rats (normatensive); 15 min,68 and 66 (2×) and 65 and 74 and 63
same,"mean arterial BP, Av.",BD-9 rats (normatensive); 15 min,67(2)
same,Average % change in mean arterial BP,BD-9 rats (normatensive); 15 min,38(3.8) %
same,mean arterial BP (individual rats),BD-9 rats (normatensive); 20 min,67 and 60 and 62 and 77 and 65 and 64
same,"mean arterial BP, Av.",BD-9 rats (normatensive); 20 min,66(2)
same,Average % change in mean arterial BP,BD-9 rats (normatensive); 20 min,39(3.1) %
same,mean arterial BP (individual rats),BD-9 rats (normatensive); 25 min,63 (2×) and 55 and 62 and 80 and 67
same,"mean arterial BP, Av.",BD-9 rats (normatensive); 25 min,65(3)
same,Average % change in mean arterial BP,BD-9 rats (normatensive); 25 min,40(2.8) %
same,mean arterial BP (individual rats),BD-9 rats (normatensive); 30 min,61 and 57 and 63 and 79 and 60 and 62
same,"mean arterial BP, Av.",BD-9 rats (normatensive); 30 min,64(3)
same,Average % change in mean arterial BP,BD-9 rats (normatensive); 30 min,41(3.4) %
same,inhibition at 0.01 mg,[1]; dose 10 μg,4%
same,inhibition at 0.0316 mg,[1]; dose 31.6 μg,0.5%
same,inhibition at 0.1 mg,[1]; dose 100 μg,9.5%
same,inhibition at 0.316 mg,[1]; dose 316 μg,-26%
same,inhibition at 1 mg,[1]; dose 1000 μg,39.5%
same,mean arterial BP (individual rats),[2]; 5 min,105 and 67 and 88 and 85 and 80 and 74
same,"mean arterial BP, Av.",[2]; 5 min,83(5)
same,Average % change in mean arterial BP,[2]; 5 min,44(5.4) %
same,mean arterial BP (individual rats),[2]; 10 min,96 and 64 and 104 and 88 and 81 and 74
same,"mean arterial BP, Av.",[2]; 10 min,85(6)
same,Average % change in mean arterial BP,[2]; 10 min,43(6.0) %
same,mean arterial BP (individual rats),[2]; 15 min,95 and 68 and 107 and 93 and 84 and 77
same,"mean arterial BP, Av.",[2]; 15 min,87(6)
same,Average % change in mean arterial BP,[2]; 15 min,41(5.8) %
same,mean arterial BP (individual rats),[2]; 20 min,93 and 69 and 92 and 100 and 83 and 80
same,"mean arterial BP, Av.",[2]; 20 min,86(5)
same,Average % change in mean arterial BP,[2]; 20 min,42(4.2) %
same,mean arterial BP (individual rats),[2]; 25 min,95 and 71 and 93 and 106 and 79 and 84
same,"mean arterial BP, Av.",[2]; 25 min,88(5)
same,Average % change in mean arterial BP,[2]; 25 min,41(4.4) %
same,mean arterial BP (individual rats),[2]; 30 min,95 and 73 and 93 and 110 and 81 and 85
same,"mean arterial BP, Av.",[2]; 30 min,90(5)
same,Average % change in mean arterial BP,[2]; 30 min,40(4.3) %
